Source: US9296723B2, “NAMPT inhibitors” (AbbVie Inc., priority 2012, dated 2016)

Tests used:
NAMPT [1] = target: T1, NAMPT (Homo sapiens, UniProt P43490); experiment: Time-Resolved Fluorescence Resonance Energy Transfer (TR-FRET) Binding Assay of NAMPT; conditions: 6.8 nM NAMPT, 200 nM probe, equilibrated 3 hours, no substrates
Method in brief: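 IC50s come from four-parameter logistic fits of control-normalized Em520/Em495 TR-FRET ratios (Ex 337 nm) against compound concentration. Before reading, enzyme, probe, antibody and compound equilibrated for 3 h at room temperature.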

NAMPT [2] = target: T1, NAMPT; experiment: TR-FRET Binding Assay of NAMPT with PRPP; conditions: 2 nM NAMPT, 2 nM probe, 200 µM PRPP and 2.5 mM ATP, equilibrated 16 hours
Method in brief: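 Substrates present: PRPP at 200 µM and ATP at 2.5 mM, final, alongside 2 nM enzyme, 2 nM tracer and 1 nM terbium anti-His donor in 2% DMSO. A 16-hour equilibration preceded the time-resolved FRET read, allowing compounds to be enzymatically modified.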

PC3 cells = experiment: NAMPT Cell Proliferation Assay (Cell Titer Glo); assay type: cell-based; conditions: Homo sapiens, PC-3, 120 h, incubated 5 days, cell viability
Method in brief: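 Viability measured by Cell Titer Glo luminescence after 5-day exposure of attached PC3 cells to compound, dosed as 10-fold serial dilutions ([…]) in RPMI/10% FBS at 37 °C and 5% CO2. Percent inhibition fitted to sigmoidal dose-response curves for IC50.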

T1 sequence (P43490 whole entry): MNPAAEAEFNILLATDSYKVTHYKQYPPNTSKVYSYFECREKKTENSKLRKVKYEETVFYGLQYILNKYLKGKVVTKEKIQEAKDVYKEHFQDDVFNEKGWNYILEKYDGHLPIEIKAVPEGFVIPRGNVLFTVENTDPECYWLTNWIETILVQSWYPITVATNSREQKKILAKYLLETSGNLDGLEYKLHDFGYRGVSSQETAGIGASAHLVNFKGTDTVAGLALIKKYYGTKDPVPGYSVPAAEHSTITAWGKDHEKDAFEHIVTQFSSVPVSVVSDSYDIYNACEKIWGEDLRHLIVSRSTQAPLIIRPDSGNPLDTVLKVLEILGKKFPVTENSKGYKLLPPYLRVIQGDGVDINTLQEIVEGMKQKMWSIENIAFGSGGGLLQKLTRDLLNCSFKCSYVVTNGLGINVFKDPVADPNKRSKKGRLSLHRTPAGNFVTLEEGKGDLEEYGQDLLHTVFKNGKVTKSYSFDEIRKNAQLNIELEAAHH

Structure (SMILES) | IC50 (NAMPT [1]) | IC50 (NAMPT [2]) | IC50 (PC3 cells)
CC(C)(C)OC(=O)N1CC(c2ccc(NC(=O)N3CC(c4cccnc4)C3)cc2)C1 [Example 62, tert-butyl 3-[4-({[3-(pyridin-3-yl)azetidin-1-yl]carbonyl}amino)phenyl]azetidine-1-carboxylate] | 91.5 nM | 0.467 nM | 69.7 nM
O=C(Nc1ccc(C2CCN(C(=O)[C@H]3CCCO3)C2)cc1)N1CC(c2cccnc2)C1 (stereo partly drawn) [Example 67, 3-(pyridin-3-yl)-N-(4-{1-[(2R)-tetrahydrofuran-2-ylcarbonyl]pyrrolidin-3-yl}phenyl)azetidine-1-carboxamide] | 173 nM | 0.171 nM | 78.5 nM
CC(C)(O)C(=O)N1CCC(c2ccc(NC(=O)N3CC(c4cccnc4)C3)cc2)C1 (stereo not drawn) [Example 70, N-{4-[1-(2-hydroxy-2-methylpropanoyl)pyrrolidin-3-yl]phenyl}-3-(pyridin-3-yl)azetidine-1-carboxamide] | 92.2 nM | 0.421 nM | 73.1 nM
O=C(Nc1ccc(C2CCN(C(=O)C3CC3)C2)cc1)N1CC(c2cccnc2)C1 (stereo not drawn) [Example 73, N-{4-[1-(cyclopropylcarbonyl)pyrrolidin-3-yl]phenyl}-3-(pyridin-3-yl)azetidine-1-carboxamide] | 156 nM | 0.663 nM | 84.5 nM
O=C(Nc1ccc(O[C@@H]2CCN(C(=O)[C@@H]3CCCO3)C2)cc1)N1CC(c2cccnc2)C1 [Example 78, 3-(pyridin-3-yl)-N-[4-({(3R)-1-[(2S)-tetrahydrofuran-2-ylcarbonyl]pyrrolidin-3-yl}oxy)phenyl]azetidine-1-carboxamide] | 137 nM | 0.226 nM | 56 nM
O=C(Nc1ccc(O[C@@H]2CCN(C(=O)C3CC3)C2)cc1)N1CC(c2cccnc2)C1 [Example 85, N-(4-{[(3R)-1-(cyclopropylcarbonyl)pyrrolidin-3-yl]oxy}phenyl)-3-(pyridin-3-yl)azetidine-1-carboxamide] | 117 nM | 0.325 nM | 48.9 nM
O=C(CC1CCOCC1)N1CC[C@H](Oc2ccc(NC(=O)N3CC(c4cccnc4)C3)cc2)C1 [Example 88, 3-(pyridin-3-yl)-N-(4-{[(3S)-1-(tetrahydro-2H-pyran-4-ylacetyl)pyrrolidin-3-yl]oxy}phenyl)azetidine-1-carboxamide] | 269 nM | 0.58 nM | 109 nM
O=C(Nc1ccc(O[C@H]2CCN(C(=O)[C@@H]3CCCO3)C2)cc1)N1CC(c2cccnc2)C1 [Example 90, 3-(pyridin-3-yl)-N-[4-({(3S)-1-[(2S)-tetrahydrofuran-2-ylcarbonyl]pyrrolidin-3-yl}oxy)phenyl]azetidine-1-carboxamide] | 404 nM | 0.196 nM | 686 nM
CC(C)(O)C(=O)N1CC[C@H](Oc2ccc(NC(=O)N3CC(c4cccnc4)C3)cc2)C1 [Example 94, N-(4-{[(3S)-1-(2-hydroxy-2-methylpropanoyl)pyrrolidin-3-yl]oxy}phenyl)-3-(pyridin-3-yl)azetidine-1-carboxamide] | 488 nM | 0.213 nM | 598 nM
CC[C@H](C)C(=O)N1CC[C@H](Oc2ccc(NC(=O)N3CC(c4cccnc4)C3)cc2)C1 [Example 98, N-[4-({(3S)-1-[(2S)-2-methylbutanoyl]pyrrolidin-3-yl}oxy)phenyl]-3-(pyridin-3-yl)azetidine-1-carboxamide] | 616 nM | 1.19 nM | 70.9 nM
CCCC(=O)N1CC[C@H](Oc2ccc(NC(=O)N3CC(c4cccnc4)C3)cc2)C1 [Example 99, N-(4-{[(3S)-1-butanoylpyrrolidin-3-yl]oxy}phenyl)-3-(pyridin-3-yl)azetidine-1-carboxamide] | 223 nM | 0.414 nM | 49.3 nM
O=C(CC1CCOCC1)N1CC(c2ccc(NC(=O)N3CC(c4cccnc4)C3)cc2)C1 [Example 100, 3-(pyridin-3-yl)-N-{4-[1-(tetrahydro-2H-pyran-4-ylacetyl)azetidin-3-yl]phenyl}azetidine-1-carboxamide] | 108 nM | 0.309 nM | 27.3 nM
CC(C)C(=O)N1CC(c2ccc(NC(=O)N3CC(c4cccnc4)C3)cc2)C1 [Example 101, N-{4-[1-(2-methylpropanoyl)azetidin-3-yl]phenyl}-3-(pyridin-3-yl)azetidine-1-carboxamide] | 143 nM | 0.629 nM | 68.1 nM
O=C(Nc1ccc(C2CN(C(=O)[C@@H]3CCCO3)C2)cc1)N1CC(c2cccnc2)C1 [Example 102, 3-(pyridin-3-yl)-N-(4-{1-[(2S)-tetrahydrofuran-2-ylcarbonyl]azetidin-3-yl}phenyl)azetidine-1-carboxamide] | 95.7 nM | 0.286 nM | 67.9 nM
O=C(Nc1ccc(C2CN(C(=O)[C@H]3CCCO3)C2)cc1)N1CC(c2cccnc2)C1 [Example 103, 3-(pyridin-3-yl)-N-(4-{1-[(2R)-tetrahydrofuran-2-ylcarbonyl]azetidin-3-yl}phenyl)azetidine-1-carboxamide] | 296 nM | 0.287 nM | 98.1 nM
O=C(Nc1ccc(C2CN(C(=O)C3CCOC3)C2)cc1)N1CC(c2cccnc2)C1 (stereo not drawn) [Example 104, 3-(pyridin-3-yl)-N-{4-[1-(tetrahydrofuran-3-ylcarbonyl)azetidin-3-yl]phenyl}azetidine-1-carboxamide] | 188 nM | 0.389 nM | 95.1 nM
O=C(CC1CC1)N1CC(c2ccc(NC(=O)N3CC(c4cccnc4)C3)cc2)C1 [Example 105, N-{4-[1-(cyclopropylacetyl)azetidin-3-yl]phenyl}-3-(pyridin-3-yl)azetidine-1-carboxamide] | 68.3 nM | 0.208 nM | 60.9 nM
CC(C)(O)C(=O)N1CC(c2ccc(NC(=O)N3CC(c4cccnc4)C3)cc2)C1 [Example 106, N-{4-[1-(2-hydroxy-2-methylpropanoyl)azetidin-3-yl]phenyl}-3-(pyridin-3-yl)azetidine-1-carboxamide] | 204 nM | 0.553 nM | 576 nM
O=C(CC(F)(F)F)N1CC(c2ccc(NC(=O)N3CC(c4cccnc4)C3)cc2)C1 [Example 108, 3-(pyridin-3-yl)-N-{4-[1-(3,3,3-trifluoropropanoyl)azetidin-3-yl]phenyl}azetidine-1-carboxamide] | 122 nM | 0.411 nM | 81.5 nM
O=C(Nc1ccc(C2CN(C(=O)C3CC3)C2)cc1)N1CC(c2cccnc2)C1 [Example 109, N-{4-[1-(cyclopropylcarbonyl)azetidin-3-yl]phenyl}-3-(pyridin-3-yl)azetidine-1-carboxamide] | 306 nM | 0.596 nM | 110 nM

Now those with a lower IC50 (NAMPT [1]), led by results:

IC50 (NAMPT [1]) | IC50 (NAMPT [2]) | IC50 (PC3 cells) | Structure (SMILES)
20.9 nM | 0.31 nM | 30.7 nM | CC(C)(C)OC(=O)N1CC[C@H](Oc2ccc(NC(=O)N3CC(c4cccnc4)C3)cc2)C1 [Example 61, tert-butyl (3S)-3-[4-({[3-(pyridin-3-yl)azetidin-1-yl]carbonyl}amino)phenoxy]pyrrolidine-1-carboxylate]
44.6 nM | 0.39 nM | 12 nM | CC(C)(C)OC(=O)N1CC(Oc2ccc(NC(=O)N3CC(c4cccnc4)C3)cc2)C1 [Example 63, tert-butyl 3-[4-({[3-(pyridin-3-yl)azetidin-1-yl]carbonyl}amino)phenoxy]azetidine-1-carboxylate]
52.1 nM | 0.171 nM | 71.1 nM | O=C(CC1CCOCC1)N1CCC(c2ccc(NC(=O)N3CC(c4cccnc4)C3)cc2)C1 (stereo not drawn) [Example 64, 3-(pyridin-3-yl)-N-{4-[1-(tetrahydro-2H-pyran-4-ylacetyl)pyrrolidin-3-yl]phenyl}azetidine-1-carboxamide]
20.1 nM | 0.184 nM | 10.7 nM | O=C(Nc1ccc(C2CCN(C(=O)c3ccccc3)C2)cc1)N1CC(c2cccnc2)C1 (stereo not drawn) [Example 71, N-[4-(1-benzoylpyrrolidin-3-yl)phenyl]-3-(pyridin-3-yl)azetidine-1-carboxamide]
65.6 nM | 0.211 nM | 77.7 nM | O=C(CC(F)(F)F)N1CCC(c2ccc(NC(=O)N3CC(c4cccnc4)C3)cc2)C1 (stereo not drawn) [Example 72, 3-(pyridin-3-yl)-N-{4-[1-(3,3,3-trifluoropropanoyl)pyrrolidin-3-yl]phenyl}azetidine-1-carboxamide]
27.4 nM | 0.244 nM | 5.48 nM | CC[C@H](C)C(=O)N1CC[C@@H](Oc2ccc(NC(=O)N3CC(c4cccnc4)C3)cc2)C1 [Example 86, N-[4-({(3R)-1-[(2S)-2-methylbutanoyl]pyrrolidin-3-yl}oxy)phenyl]-3-(pyridin-3-yl)azetidine-1-carboxamide]
12.3 nM | 0.342 nM | 5.99 nM | O=C(Nc1ccc(C2CN(C(=O)c3ccccc3)C2)cc1)N1CC(c2cccnc2)C1 [Example 107, N-[4-(1-benzoylazetidin-3-yl)phenyl]-3-(pyridin-3-yl)azetidine-1-carboxamide]
35.3 nM | 0.421 nM | 11.8 nM | CC[C@H](C)C(=O)N1CC(c2ccc(NC(=O)N3CC(c4cccnc4)C3)cc2)C1 [Example 110, N-(4-{1-[(2S)-2-methylbutanoyl]azetidin-3-yl}phenyl)-3-(pyridin-3-yl)azetidine-1-carboxamide]
